In PubChem BioAssay AID1259407 (Chemical Carcinogenesis Research Information System (CCRIS), 2018) one finds mutagenic call data, which are given here for seven compounds.

The test system of this series is CCRIS mutagenicity, Ames/micronucleus/aberration tests. The experiment in a line: CCRIS mutagenicity studies.
Setting [1] is: Test System: AMES SALMONELLA TYPHIMURIUM, Strain/Indicator: TA98, Metabolic Activation: RAT, LIVER, S-9, AROCLOR 1254, Method: STANDARD PLATE.
The mark [2] stands for this setting: Test System: AMES SALMONELLA TYPHIMURIUM, Strain/Indicator: TA100, Metabolic Activation: NONE, Method: STANDARD PLATE.
The mark [3] stands for this setting: Test System: AMES SALMONELLA TYPHIMURIUM, Strain/Indicator: TA100, Metabolic Activation: RAT, LIVER, S-9, AROCLOR 1254, Method: STANDARD PLATE.
Setting [4] is: Test System: AMES SALMONELLA TYPHIMURIUM, Strain/Indicator: TA1535, Metabolic Activation: NONE, Method: STANDARD PLATE.
[5] abbreviates: Test System: AMES SALMONELLA TYPHIMURIUM, Strain/Indicator: TA1537, Metabolic Activation: NONE, Method: PREINCUBATION
Where [6] appears, read: Test System: AMES SALMONELLA TYPHIMURIUM, Strain/Indicator: TA1537, Metabolic Activation: RAT, LIVER, S-9, AROCLOR 1254, Method: STANDARD PLATE.
Setting [7] is: Test System: AMES SALMONELLA TYPHIMURIUM, Strain/Indicator: TA1538, Metabolic Activation: NONE, Method: STANDARD PLATE.
[8] abbreviates: Test System: AMES SALMONELLA TYPHIMURIUM, Strain/Indicator: TA1538, Metabolic Activation: RAT, LIVER, S-9, AROCLOR 1254, Method: STANDARD PLATE.

The structures appear in SMILES notation. Active and inactive are the calls of the source. How the calls were made is not given here.

`CCCCC(CC)COC(=O)c1ccc(N(C)N=O)cc1` (centres undefined): the mutagenic call is “inactive; negative” (Test System: AMES SALMONELLA TYPHIMURIUM, Strain/Indicator: TA98, Metabolic Activation: HAMSTER, LIVER, S-9, AROCLOR 1254, Method: PREINCUBATION); “inactive; negative” (Test System: AMES SALMONELLA TYPHIMURIUM, Strain/Indicator: TA98, Metabolic Activation: HAMSTER, LIVER, S-9, AROCLOR 1254, Method: STANDARD PLATE); “inactive; negative” (Test System: AMES SALMONELLA TYPHIMURIUM, Strain/Indicator: TA98, Metabolic Activation: NONE, Method: PREINCUBATION); “inactive; negative” (Test System: AMES SALMONELLA TYPHIMURIUM, Strain/Indicator: TA98, Metabolic Activation: NONE, Method: STANDARD PLATE); “inactive; negative” (Test System: AMES SALMONELLA TYPHIMURIUM, Strain/Indicator: TA98, Metabolic Activation: RAT, LIVER, S-9, AROCLOR 1254, Method: PREINCUBATION); “inactive; negative” under setting [1]. In addition, the mutagenic call reads like this: (Test System: AMES SALMONELLA TYPHIMURIUM, Strain/Indicator: TA100, Metabolic Activation: HAMSTER, LIVER, S-9, AROCLOR 1254 (1.5 OR 3.6 MG), Method: PREINCUBATION) “inactive; negative”; (Test System: AMES SALMONELLA TYPHIMURIUM, Strain/Indicator: TA100, Metabolic Activation: HAMSTER, LIVER, S-9, AROCLOR 1254, Method: PREINCUBATION) “inactive; negative”; (Test System: AMES SALMONELLA TYPHIMURIUM, Strain/Indicator: TA100, Metabolic Activation: HAMSTER, LIVER, S-9, AROCLOR 1254, Method: STANDARD PLATE) “inactive; negative”; (Test System: AMES SALMONELLA TYPHIMURIUM, Strain/Indicator: TA100, Metabolic Activation: NONE, Method: PREINCUBATION) “inactive; negative”; under setting [2], “inactive; negative”; (Test System: AMES SALMONELLA TYPHIMURIUM, Strain/Indicator: TA100, Metabolic Activation: RAT, LIVER, S-9, AROCLOR 1254 (1.5 OR 2.2 MG), Method: PREINCUBATION) “inactive; negative”. Besides, the mutagenic call was “inactive; negative” (Test System: AMES SALMONELLA TYPHIMURIUM, Strain/Indicator: TA100, Metabolic Activation: RAT, LIVER, S-9, AROCLOR 1254, Method: PREINCUBATION); “inactive; negative” under setting [3]; “inactive; negative” (Test System: AMES SALMONELLA TYPHIMURIUM, Strain/Indicator: TA1535, Metabolic Activation: HAMSTER, LIVER, S-9, AROCLOR 1254 (1.5 OR 3.6 MG), Method: PREINCUBATION); “inactive; negative” (Test System: AMES SALMONELLA TYPHIMURIUM, Strain/Indicator: TA1535, Metabolic Activation: HAMSTER, LIVER, S-9, AROCLOR 1254, Method: PREINCUBATION); “inactive; negative” (Test System: AMES SALMONELLA TYPHIMURIUM, Strain/Indicator: TA1535, Metabolic Activation: HAMSTER, LIVER, S-9, AROCLOR 1254, Method: STANDARD PLATE); “inactive; negative” (Test System: AMES SALMONELLA TYPHIMURIUM, Strain/Indicator: TA1535, Metabolic Activation: NONE, Method: PREINCUBATION). Moreover, the mutagenic call under setting [4] is “inactive; negative”; the mutagenic call (Test System: AMES SALMONELLA TYPHIMURIUM, Strain/Indicator: TA1535, Metabolic Activation: RAT, LIVER, S-9, AROCLOR 1254 (1.5 OR 2.2 MG), Method: PREINCUBATION) was “inactive; negative”; the mutagenic call (Test System: AMES SALMONELLA TYPHIMURIUM, Strain/Indicator: TA1535, Metabolic Activation: RAT, LIVER, S-9, AROCLOR 1254, Method: PREINCUBATION) was “inactive; negative”; the mutagenic call (Test System: AMES SALMONELLA TYPHIMURIUM, Strain/Indicator: TA1535, Metabolic Activation: RAT, LIVER, S-9, AROCLOR 1254, Method: STANDARD PLATE) was “inactive; negative”; the mutagenic call (Test System: AMES SALMONELLA TYPHIMURIUM, Strain/Indicator: TA1537, Metabolic Activation: HAMSTER, LIVER, S-9, AROCLOR 1254, Method: PREINCUBATION) was “inactive; negative”; the mutagenic call (Test System: AMES SALMONELLA TYPHIMURIUM, Strain/Indicator: TA1537, Metabolic Activation: HAMSTER, LIVER, S-9, AROCLOR 1254, Method: STANDARD PLATE) was “inactive; negative”. The mutagenic call under setting [5] is “inactive; negative”; the mutagenic call (Test System: AMES SALMONELLA TYPHIMURIUM, Strain/Indicator: TA1537, Metabolic Activation: NONE, Method: STANDARD PLATE) is “inactive; negative”; the mutagenic call (Test System: AMES SALMONELLA TYPHIMURIUM, Strain/Indicator: TA1537, Metabolic Activation: RAT, LIVER, S-9, AROCLOR 1254, Method: PREINCUBATION) was “inactive; negative”; the mutagenic call under setting [6] is “inactive; negative”; the mutagenic call (Test System: AMES SALMONELLA TYPHIMURIUM, Strain/Indicator: TA1538, Metabolic Activation: HAMSTER, LIVER, S-9, AROCLOR 1254, Method: PREINCUBATION) was “inactive; negative”; the mutagenic call (Test System: AMES SALMONELLA TYPHIMURIUM, Strain/Indicator: TA1538, Metabolic Activation: HAMSTER, LIVER, S-9, AROCLOR 1254, Method: STANDARD PLATE) was “inactive; negative”. The mutagenic call (Test System: AMES SALMONELLA TYPHIMURIUM, Strain/Indicator: TA1538, Metabolic Activation: NONE, Method: PREINCUBATION) was “inactive; negative”; the mutagenic call under setting [7] is “inactive; negative”; the mutagenic call (Test System: AMES SALMONELLA TYPHIMURIUM, Strain/Indicator: TA1538, Metabolic Activation: RAT, LIVER, S-9, AROCLOR 1254, Method: PREINCUBATION) is “inactive; negative”; the mutagenic call under setting [8] is “inactive; negative”; the mutagenic call (Test System: MOUSE LYMPHOMA, Strain/Indicator: L5178Y (TK+/TK-), Metabolic Activation: HAMSTER, LIVER, S-9, AROCLOR 1254, Method: SUSPENSION/PLATE) was “inactive; negative”.
`Nc1cccc2c1-c1ccccc1C2`: the mutagenic call was “active; positive” (Test System: AMES SALMONELLA TYPHIMURIUM, Strain/Indicator: TA98, Metabolic Activation: RAT, LIVER, S-9, AROCLOR 1254 (2 OR 4%), Method: STANDARD PLATE); “active; positive” (Test System: AMES SALMONELLA TYPHIMURIUM, Strain/Indicator: TA100, Metabolic Activation: RAT, LIVER, S-9, AROCLOR 1254 (2%), Method: STANDARD PLATE); “inactive; negative” (Test System: AMES SALMONELLA TYPHIMURIUM, Strain/Indicator: TA1535, Metabolic Activation: RAT, LIVER, S-9, AROCLOR 1254 (2%), Method: STANDARD PLATE); “inactive; negative” (Test System: AMES SALMONELLA TYPHIMURIUM, Strain/Indicator: TA1537, Metabolic Activation: RAT, LIVER, S-9, AROCLOR 1254 (2%), Method: STANDARD PLATE).
As to `Fc1ccc2ccc3cccnc3c2c1`, the mutagenic call (Test System: AMES SALMONELLA TYPHIMURIUM, Strain/Indicator: TA100, Metabolic Activation: RAT, LIVER, S-9, PHENOBARBITAL AND 5,6-BENZOFLAVONE, Method: PREINCUBATION) is “active; positive”.
`c1ccc(Cc2ccccc2OCC2CO2)cc1` (centres undefined): the mutagenic call runs as follows: under setting [2], “active; positive”; under setting [4], “active; positive”.
Turning to `COC1C2C(=O)C34C(=O)c5c(O)cc(C)cc5C(=O)C35C3C(=O)C46C(=O)c4c(O)cc(C)cc4C(=O)C26C(C3OC)C15` (centres undefined), the mutagenic call is “inactive; negative” under setting [1], “inactive; negative” under setting [3] and “inactive; negative” under setting [6].
With `CCN(CC)c1ccc2c(C(F)(F)F)cc(=O)oc2c1`, the mutagenic call runs as follows: under setting [7], “inactive; negative”; under setting [8], “inactive; negative”.
On to `Nc1c2ccccc2nc2ccc([N+](=O)[O-])cc12`, for which the mutagenic call (Test System: AMES SALMONELLA TYPHIMURIUM, Strain/Indicator: TA1537, Metabolic Activation: NONE) is “active; positive” and the mutagenic call under setting [5] is “active; positive”.
